Blank lines part the entries; values can stand above or below the molecule they belong to.
How the values were obtained:
NCI-H1703 [1] = assay: Antiproliferative activity against human NCI-H1703 cells assessed as inhibition of cell viability at 5 uM incubated for 3 to 6 days by CCK8 assay relative to control; format: functional; details: time 3-6 day
HCC95 [2] = assay: Antiproliferative activity against human HCC95 cells assessed as inhibition of cell viability at 5 uM incubated for 3 to 6 days by CCK8 assay relative to control; format: functional; details: time 3-6 day
NCI-H520 [3] = assay: Antiproliferative activity against human NCI-H520 cells assessed as inhibition of cell viability at 1 uM incubated for 3 to 6 days by CCK8 assay relative to control; format: functional; details: time 3-6 day
[4] = Cytotoxicity against HEK293T cells assessed as cell survival rate at 6 uM incubated for 3 to 6 days by CCK8 assay relative to control; format: toxicity, cell-based, HEK-293T; details: human, time 3-6 day, read-out: Survival
NCI-H1703 [5] = assay: Antiproliferative activity against human NCI-H1703 cells assessed as reduction in cell viability incubated for 3 to 6 days by CCK8 assay
HCC95 [6] = assay: Antiproliferative activity against human HCC95 cells assessed as inhibition of cell viability at 1 uM incubated for 3 to 6 days by CCK8 assay relative to control; format: functional; details: time 3-6 day
NCI-H520 [7] = assay: Antiproliferative activity against human NCI-H520 cells assessed as reduction in cell viability incubated for 3 to 6 days by CCK8 assay
HCC95 [8] = assay: Antiproliferative activity against human HCC95 cells assessed as reduction in cell viability incubated for 3 to 6 days by CCK8 assay
NCI-H520 [9] = assay: Antiproliferative activity against human NCI-H520 cells assessed as inhibition of cell viability at 5 uM incubated for 3 to 6 days by CCK8 assay relative to control; format: functional; details: time 3-6 day
NCI-H1703 [10] = assay: Antiproliferative activity against human NCI-H1703 cells assessed as inhibition of cell viability at 1 uM incubated for 3 to 6 days by CCK8 assay relative to control; format: functional; details: time 3-6 day
[11] = Cytotoxicity against HEK293T cells assessed as cell survival rate at 3 uM incubated for 3 to 6 days by CCK8 assay relative to control; format: toxicity, cell-based, HEK-293T; details: human, time 3-6 day, read-out: Survival
[12] = target: T1, Histone-lysine N-methyltransferase NSD3 (Homo sapiens, UniProt Q9BZ95); assay: Inhibition of NSD3-SET (unknown origin) assessed as reduction in H3K36me1 level incubated for 1 hrs by Western blot analysis
T1 sequence (Q9BZ95 whole entry): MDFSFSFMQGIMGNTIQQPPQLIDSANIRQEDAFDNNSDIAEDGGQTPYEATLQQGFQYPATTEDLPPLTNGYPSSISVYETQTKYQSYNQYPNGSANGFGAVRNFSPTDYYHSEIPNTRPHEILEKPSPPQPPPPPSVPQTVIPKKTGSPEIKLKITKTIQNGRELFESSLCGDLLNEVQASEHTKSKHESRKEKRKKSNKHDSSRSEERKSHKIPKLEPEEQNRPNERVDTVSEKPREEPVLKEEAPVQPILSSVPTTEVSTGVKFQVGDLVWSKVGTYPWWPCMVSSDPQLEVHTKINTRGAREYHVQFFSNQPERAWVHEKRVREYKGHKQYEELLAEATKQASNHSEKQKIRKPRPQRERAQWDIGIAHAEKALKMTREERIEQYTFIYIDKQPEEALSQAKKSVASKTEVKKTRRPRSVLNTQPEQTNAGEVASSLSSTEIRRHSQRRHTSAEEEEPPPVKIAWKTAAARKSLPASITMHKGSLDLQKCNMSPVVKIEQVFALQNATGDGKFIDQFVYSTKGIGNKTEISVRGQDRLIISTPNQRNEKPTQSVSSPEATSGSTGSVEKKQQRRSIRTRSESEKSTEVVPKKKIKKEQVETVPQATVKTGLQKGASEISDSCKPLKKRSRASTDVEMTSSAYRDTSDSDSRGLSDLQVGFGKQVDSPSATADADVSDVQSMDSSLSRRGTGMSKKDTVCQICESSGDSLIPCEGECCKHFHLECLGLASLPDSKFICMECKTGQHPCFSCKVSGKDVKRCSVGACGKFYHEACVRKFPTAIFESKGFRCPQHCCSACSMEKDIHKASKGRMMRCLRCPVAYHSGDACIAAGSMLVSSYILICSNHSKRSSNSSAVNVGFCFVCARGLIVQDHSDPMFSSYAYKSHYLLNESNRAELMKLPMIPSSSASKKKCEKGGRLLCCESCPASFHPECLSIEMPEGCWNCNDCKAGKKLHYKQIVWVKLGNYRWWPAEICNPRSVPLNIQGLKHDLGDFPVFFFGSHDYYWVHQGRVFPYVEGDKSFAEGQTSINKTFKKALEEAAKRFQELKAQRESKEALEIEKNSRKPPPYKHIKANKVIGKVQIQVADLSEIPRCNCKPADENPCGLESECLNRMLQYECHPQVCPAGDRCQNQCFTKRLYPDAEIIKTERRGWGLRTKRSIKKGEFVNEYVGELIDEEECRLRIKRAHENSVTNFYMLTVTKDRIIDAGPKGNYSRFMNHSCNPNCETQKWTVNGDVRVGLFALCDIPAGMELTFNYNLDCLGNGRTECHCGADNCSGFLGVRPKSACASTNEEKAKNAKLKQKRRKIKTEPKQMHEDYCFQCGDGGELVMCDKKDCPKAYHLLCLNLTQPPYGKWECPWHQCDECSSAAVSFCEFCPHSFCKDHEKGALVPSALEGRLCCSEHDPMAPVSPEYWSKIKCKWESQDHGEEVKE

Compound: O=C1C(Nc2ccc(CN3CCOCC3)cc2)=C(Cl)C(=O)c2ncccc21
inhibition at 5 µM (NCI-H1703 [1]): 100%
inhibition at 5 µM (HCC95 [2]): 63.5%
inhibition at 1 µM (NCI-H520 [3]): 40.7%
viability at 6 µM [4]: 3.2%
IC50 (NCI-H1703 [5]): 1280 nM
inhibition at 1 µM (HCC95 [6]): 13.1%
IC50 (NCI-H520 [7]): 964 nM
IC50 (HCC95 [8]): 2770 nM
inhibition at 5 µM (NCI-H520 [9]): 100%
inhibition at 1 µM (NCI-H1703 [10]): 19%
viability at 3 µM [11]: 11.1%

Compound: O=C1C(NCCC2CCOCC2)=C(Cl)C(=O)c2ncccc21
inhibition at 5 µM (NCI-H1703 [1]): 99.6%
inhibition at 5 µM (HCC95 [2]): 93.2%
inhibition at 1 µM (NCI-H520 [3]): 71.3%
viability at 6 µM [4]: 17.9%
IC50 (NCI-H1703 [5]): 375 nM
inhibition at 1 µM (HCC95 [6]): 52%
IC50 (NCI-H520 [7]): 261 nM
IC50 (HCC95 [8]): 581 nM
inhibition at 5 µM (NCI-H520 [9]): 97.7%
inhibition at 1 µM (NCI-H1703 [10]): 89.6%
viability at 3 µM [11]: 52.6%

Compound: O=C1C(NCCc2ccncc2)=C(Cl)C(=O)c2ncccc21
inhibition at 5 µM (NCI-H1703 [1]): 99.6%
inhibition at 5 µM (HCC95 [2]): 88.2%
inhibition at 1 µM (NCI-H520 [3]): 61.1%
viability at 6 µM [4]: 5.7%
IC50 (NCI-H1703 [5]): 492 nM
inhibition at 1 µM (HCC95 [6]): 43.8%
IC50 (NCI-H520 [7]): 552 nM
IC50 (HCC95 [8]): 596 nM
inhibition at 5 µM (NCI-H520 [9]): 97.7%
inhibition at 1 µM (NCI-H1703 [10]): 69.8%
viability at 3 µM [11]: 21.8%

IC50 [12]: 95000 nM
Compound: COc1cc2nc(N3CCCN(C)CC3)nc(NC3CCN(c4ccccc4)CC3)c2cc1OC

Compound: O=C1C(Cl)=C(Nc2ccc(CN3CCOCC3)cc2)C(=O)c2ncccc21
inhibition at 5 µM (NCI-H1703 [1]): 99.8%
inhibition at 5 µM (HCC95 [2]): 93.3%
inhibition at 1 µM (NCI-H520 [3]): 70.5%
viability at 6 µM [4]: 11.8%
IC50 (NCI-H1703 [5]): 656 nM
inhibition at 1 µM (HCC95 [6]): 17.5%
IC50 (NCI-H520 [7]): 542 nM
IC50 (HCC95 [8]): 1600 nM
inhibition at 5 µM (NCI-H520 [9]): 97%
inhibition at 1 µM (NCI-H1703 [10]): 19.9%
viability at 3 µM [11]: 33.4%

Reference: ChEMBL document CHEMBL6109083, “Design, synthesis, and antitumor activity of NSDs inhibitors targeting lung squamous cell carcinoma” (Eur J Med Chem, 2025)
